Measured values as given in ChEMBL document CHEMBL3994622, “Design and synthesis of new RAF kinase-inhibiting antiproliferative quinoline derivatives. Part 2: Diarylurea derivatives” (Eur J Med Chem, 2017).

Key:
Assay type in all cases: functional
NCI-H322M [1] = experiment: Growth inhibition of human NCI-H322M cells assessed as cell growth at 0.01 uM incubated for 48 hrs by sulforhodamine B assay relative to control; details: read-out: Activity
SN12C [2] = experiment: Growth inhibition of human SN12C cells assessed as cell growth at 1 uM incubated for 48 hrs by sulforhodamine B assay relative to control; details: read-out: Activity
NCI/ADR-RES = experiment: Growth inhibition of human NCI/ADR-RES cells assessed as cell growth at 10 uM incubated for 48 hrs by sulforhodamine B assay relative to control; details: read-out: Activity
COLO 205 [3] = experiment: Growth inhibition of human COLO205 cells assessed as cell growth at 10 uM incubated for 48 hrs by sulforhodamine B assay relative to control; details: COLO 205, 48 h, read-out: Activity
MOLT-4 = experiment: Growth inhibition of human MOLT4 cells assessed as cell growth at 1 uM incubated for 48 hrs by sulforhodamine B assay relative to control; details: MOLT-4, 48 h, read-out: Activity
COLO 205 [4] = experiment: Growth inhibition of human COLO205 cells assessed as cell growth at 1 uM incubated for 48 hrs by sulforhodamine B assay relative to control; details: COLO 205, 48 h, read-out: Activity
KM12 = experiment: Growth inhibition of human KM12 cells assessed as cell growth at 0.1 uM incubated for 48 hrs by sulforhodamine B assay relative to control; details: KM12, 48 h, read-out: Activity
ACHN = experiment: Growth inhibition of human ACHN cells assessed as cell growth at 0.1 uM incubated for 48 hrs by sulforhodamine B assay relative to control; details: read-out: Activity
U-251 = experiment: Growth inhibition of human U251 cells assessed as cell growth at 10 uM incubated for 48 hrs by sulforhodamine B assay relative to control; details: U-251, 48 h, read-out: Activity
SF-539 [5] = experiment: Growth inhibition of human SF539 cells assessed as cell growth at 10 uM incubated for 48 hrs by sulforhodamine B assay relative to control; details: SF-539, 48 h, read-out: Activity
SK-MEL-28 = experiment: Growth inhibition of human SK-MEL-28 cells assessed as cell growth at 1 uM incubated for 48 hrs by sulforhodamine B assay relative to control; details: SK-MEL-28, 48 h, read-out: Activity
COLO 205 [6] = experiment: Growth inhibition of human COLO205 cells assessed as cell growth at 3 uM incubated for 48 hrs by sulforhodamine B assay relative to control; details: COLO 205, 48 h, read-out: Activity
CCRF-CEM = experiment: Growth inhibition of human CCRF-CEM cells assessed as cell growth at 30 uM incubated for 48 hrs by sulforhodamine B assay relative to control; details: read-out: Activity
SK-OV-3 [7] = experiment: Growth inhibition of human SKOV3 cells assessed as cell growth at 0.3 uM incubated for 48 hrs by sulforhodamine B assay relative to control; details: SK-OV-3, 48 h, read-out: Activity
UACC-257 = experiment: Growth inhibition of human UACC257 cells assessed as cell growth at 0.003 uM incubated for 48 hrs by sulforhodamine B assay relative to control; details: UACC-257, 48 h, read-out: Activity
HCT-15 = experiment: Growth inhibition of human HCT15 cells assessed as cell growth at 30 uM incubated for 48 hrs by sulforhodamine B assay relative to control; details: HCT-15, 48 h, read-out: Activity
COLO 205 [8] = experiment: Growth inhibition of human COLO205 cells assessed as cell growth at 0.003 uM incubated for 48 hrs by sulforhodamine B assay relative to control; details: COLO 205, 48 h, read-out: Activity
DU-145 = experiment: Growth inhibition of human DU145 cells assessed as cell growth at 0.03 uM incubated for 48 hrs by sulforhodamine B assay relative to control; details: DU-145, 48 h, read-out: Activity
SN12C [9] = experiment: Growth inhibition of human SN12C cells assessed as cell growth at 0.03 uM incubated for 48 hrs by sulforhodamine B assay relative to control; details: read-out: Activity
SK-OV-3 [10] = experiment: Growth inhibition of human SKOV3 cells assessed as cell growth at 0.03 uM incubated for 48 hrs by sulforhodamine B assay relative to control; details: SK-OV-3, 48 h, read-out: Activity
786-0 [11] = experiment: Growth inhibition of human 786-0 cells assessed as cell growth at 30 uM incubated for 48 hrs by sulforhodamine B assay relative to control; details: 786-0, 48 h, read-out: Activity
SNB-19 = experiment: Growth inhibition of human SNB19 cells assessed as cell growth at 0.03 uM incubated for 48 hrs by sulforhodamine B assay relative to control; details: SNB-19, 48 h, read-out: Activity
Hs-578T = experiment: Growth inhibition of human Hs 578T cells assessed as cell growth at 0.3 uM incubated for 48 hrs by sulforhodamine B assay relative to control; details: read-out: Activity
MDA-MB-231 = experiment: Growth inhibition of human MDA-MB-231 cells assessed as cell growth at 0.03 uM incubated for 48 hrs by sulforhodamine B assay relative to control; details: MDA-MB-231, 48 h, read-out: Activity
OVCAR-8 = experiment: Growth inhibition of human OVCAR8 cells assessed as cell growth at 0.003 uM incubated for 48 hrs by sulforhodamine B assay relative to control; details: OVCAR-8, 48 h, read-out: Activity
NCI-H460 = experiment: Growth inhibition of human NCI-H460 cells assessed as cell growth at 3 uM incubated for 48 hrs by sulforhodamine B assay relative to control; details: NCI-H460, 48 h, read-out: Activity
NCI-H322M [12] = experiment: Growth inhibition of human NCI-H322M cells assessed as cell growth at 0.03 uM incubated for 48 hrs by sulforhodamine B assay relative to control; details: read-out: Activity
M14 = experiment: Growth inhibition of human M14 cells assessed as cell growth at 0.03 uM incubated for 48 hrs by sulforhodamine B assay relative to control; details: M14, 48 h, read-out: Activity
SW-620 = experiment: Growth inhibition of human SW620 cells assessed as cell growth at 30 uM incubated for 48 hrs by sulforhodamine B assay relative to control; details: SW-620, 48 h, read-out: Activity
K562 = experiment: Growth inhibition of human K562 cells assessed as cell growth at 0.003 uM incubated for 48 hrs by sulforhodamine B assay relative to control; details: K562, 48 h, read-out: Activity
786-0 [13] = experiment: Growth inhibition of human 786-0 cells assessed as cell growth at 0.03 uM incubated for 48 hrs by sulforhodamine B assay relative to control; details: 786-0, 48 h, read-out: Activity
SF-295 = experiment: Growth inhibition of human SF295 cells assessed as cell growth at 3 uM incubated for 48 hrs by sulforhodamine B assay relative to control; details: SF-295, 48 h, read-out: Activity
SK-MEL-2 = experiment: Growth inhibition of human SK-MEL-2 cells assessed as cell growth at 3 uM incubated for 48 hrs by sulforhodamine B assay relative to control; details: SK-MEL-2, 48 h, read-out: Activity
HOP-62 = experiment: Growth inhibition of human HOP62 cells assessed as cell growth at 0.03 uM incubated for 48 hrs by sulforhodamine B assay relative to control; details: HOP-62, 48 h, read-out: Activity
SF-539 [14] = experiment: Growth inhibition of human SF539 cells assessed as cell growth at 3 uM incubated for 48 hrs by sulforhodamine B assay relative to control; details: SF-539, 48 h, read-out: Activity

`COc1cc2cc(Oc3ccc(NC(=O)Nc4cc(C(F)(F)F)cc(C(F)(F)F)c4)cc3)c(C)nc2cc1OC` gave a growth at 0.01 µM (NCI-H322M [1]) of 94%, a growth at 1 µM (SN12C [2]) of 35% and a growth at 10 µM (NCI/ADR-RES) of -54%. It also gave a growth at 10 µM (COLO 205 [3]) of -74%, a growth at 1 µM (MOLT-4) of 55% and a growth at 1 µM (COLO 205 [4]) of 92%. The growth at 0.1 µM (KM12) was 95%, the growth at 0.1 µM (ACHN) was 98% and the growth at 10 µM (U-251) was -85%. For the same compound, the growth at 10 µM (SF-539 [5]) was -72% and the growth at 1 µM (SK-MEL-28) was 59%.

`Cc1nc2cc(O)c(O)cc2cc1Oc1ccc(NC(=O)Nc2ccc(Cl)c(Cl)c2)cc1` was tested, and the growth at 3 µM (COLO 205 [6]) was 85%, the growth at 30 µM (CCRF-CEM) was -16% and the growth at 0.3 µM (SK-OV-3 [7]) was 108%. It also gave a growth at 0.003 µM (UACC-257) of 85%, a growth at 30 µM (HCT-15) of 9% and a growth at 0.003 µM (COLO 205 [8]) of 107%. For the same compound, the growth at 0.03 µM (DU-145) was 111%, the growth at 0.03 µM (SN12C [9]) was 102% and the growth at 0.03 µM (SK-OV-3 [10]) was 102%. For the same compound, the growth at 30 µM (786-0 [11]) was -31%, the growth at 0.03 µM (SNB-19) was 103% and the growth at 0.3 µM (Hs-578T) was 91%. For the same compound, the growth at 0.03 µM (MDA-MB-231) was 115%, the growth at 0.003 µM (OVCAR-8) was 98% and the growth at 3 µM (NCI-H460) was 96%. It also gave a growth at 0.03 µM (NCI-H322M [12]) of 108%, a growth at 0.03 µM (M14) of 89% and a growth at 30 µM (SW-620) of 16%. It also gave a growth at 0.003 µM (K562) of 122%, a growth at 0.03 µM (786-0 [13]) of 95% and a growth at 3 µM (SF-295) of 98%. It also gave a growth at 3 µM (SK-MEL-2) of 107%, a growth at 0.03 µM (HOP-62) of 105% and a growth at 3 µM (SF-539 [14]) of 103%.

For `COc1cc2cc(Oc3ccc(NC(=O)Nc4ccc(Cl)c(Cl)c4)cc3)c(C)nc2cc1OC`, the growth at 0.01 µM (NCI-H322M [1]) was 100%, the growth at 1 µM (SN12C [2]) was 85% and the growth at 10 µM (NCI/ADR-RES) was 14%. It also gave a growth at 10 µM (COLO 205 [3]) of -25%, a growth at 1 µM (MOLT-4) of 90% and a growth at 1 µM (COLO 205 [4]) of 109%. It also gave a growth at 0.1 µM (KM12) of 104%, a growth at 0.1 µM (ACHN) of 105% and a growth at 10 µM (U-251) of -13%. The growth at 10 µM (SF-539 [5]) was 29% and the growth at 1 µM (SK-MEL-28) was 97%.

`COc1cc2cc(Oc3ccc(NC(=O)Nc4ccc(Cl)c(C(F)(F)F)c4)cc3)c(C)nc2cc1OC` gave a growth at 3 µM (COLO 205 [6]) of -67%, a growth at 30 µM (CCRF-CEM) of -38% and a growth at 0.3 µM (SK-OV-3 [7]) of 103%. For the same compound, the growth at 0.003 µM (UACC-257) was 94%, the growth at 30 µM (HCT-15) was -76% and the growth at 0.003 µM (COLO 205 [8]) was 97%. It also gave a growth at 0.03 µM (DU-145) of 96%, a growth at 0.03 µM (SN12C [9]) of 95% and a growth at 0.03 µM (SK-OV-3 [10]) of 100%. For the same compound, the growth at 30 µM (786-0 [11]) was -71%, the growth at 0.03 µM (SNB-19) was 95% and the growth at 0.3 µM (Hs-578T) was 84%. The growth at 0.03 µM (MDA-MB-231) was 92%, the growth at 0.003 µM (OVCAR-8) was 94% and the growth at 3 µM (NCI-H460) was 3%. The growth at 0.03 µM (NCI-H322M [12]) was 90%, the growth at 0.03 µM (M14) was 82% and the growth at 30 µM (SW-620) was -87%. For the same compound, the growth at 0.003 µM (K562) was 95%, the growth at 0.03 µM (786-0 [13]) was 83% and the growth at 3 µM (SF-295) was -5%. For the same compound, the growth at 3 µM (SK-MEL-2) was -29%, the growth at 0.03 µM (HOP-62) was 106% and the growth at 3 µM (SF-539 [14]) was 34%.
